Key:
MEK5 = target: T1, MEK5 (Homo sapiens, UniProt Q13163); assay: biochemical; settings: read-out: %Ctrl @ 1000nM
T1 construct: gene MAP2K5

TGFBR1 = TGFBR1 (Homo sapiens, UniProt P36897); assay: biochemical; settings: read-out: %Ctrl @ 1000nM
CDK4-cyclinD3 = CDK4-cyclinD3 (Homo sapiens, UniProt P11802); assay: biochemical; settings: read-out: %Ctrl @ 1000nM
p38-delta = target: T2, p38-delta (Homo sapiens, UniProt O15264); assay: biochemical; settings: read-out: %Ctrl @ 1000nM
T2 construct: gene MAPK13

PKNB(M.tuberculosis) = PKNB(M.tuberculosis) (Mycobacterium tuberculosis, UniProt P9WI81); assay: biochemical; settings: read-out: %Ctrl @ 1000nM
PFPK5(P.falciparum) = target: T3, PFPK5(P.falciparum) (Plasmodium falciparum, UniProt P61075); assay: biochemical; settings: competition binding; read-out: %Ctrl @ 1000nM
T3 construct: gene CRK2

[1] = Pharmacokinetics study in SD rats; type: in vivo; settings: male, Sprague-Dawley, rat, whole blood, iv, 4 mg/kg, read-out: CL (L/hr/kg) in rats (converted)
CDK11 = CDK11 (Homo sapiens, UniProt Q9BWU1); assay: KINOMEscan binding constant, CDK11; settings: read-out: Binding affinity (Kd, nM) CDK11
CDK11, sequence (Q9BWU1 whole entry): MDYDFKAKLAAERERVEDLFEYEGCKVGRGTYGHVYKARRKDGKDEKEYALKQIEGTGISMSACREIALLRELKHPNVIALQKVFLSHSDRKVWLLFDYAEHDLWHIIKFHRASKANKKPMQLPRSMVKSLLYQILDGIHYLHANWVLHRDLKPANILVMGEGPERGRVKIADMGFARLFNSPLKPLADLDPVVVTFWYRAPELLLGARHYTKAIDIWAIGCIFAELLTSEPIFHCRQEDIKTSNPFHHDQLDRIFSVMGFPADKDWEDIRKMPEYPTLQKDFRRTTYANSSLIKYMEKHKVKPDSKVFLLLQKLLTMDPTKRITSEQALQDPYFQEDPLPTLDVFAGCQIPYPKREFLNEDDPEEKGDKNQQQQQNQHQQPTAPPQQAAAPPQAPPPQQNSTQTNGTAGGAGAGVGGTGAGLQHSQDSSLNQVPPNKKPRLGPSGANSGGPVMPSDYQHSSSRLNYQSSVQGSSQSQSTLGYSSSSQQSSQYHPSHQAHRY

T2 sequence (O15264 whole entry): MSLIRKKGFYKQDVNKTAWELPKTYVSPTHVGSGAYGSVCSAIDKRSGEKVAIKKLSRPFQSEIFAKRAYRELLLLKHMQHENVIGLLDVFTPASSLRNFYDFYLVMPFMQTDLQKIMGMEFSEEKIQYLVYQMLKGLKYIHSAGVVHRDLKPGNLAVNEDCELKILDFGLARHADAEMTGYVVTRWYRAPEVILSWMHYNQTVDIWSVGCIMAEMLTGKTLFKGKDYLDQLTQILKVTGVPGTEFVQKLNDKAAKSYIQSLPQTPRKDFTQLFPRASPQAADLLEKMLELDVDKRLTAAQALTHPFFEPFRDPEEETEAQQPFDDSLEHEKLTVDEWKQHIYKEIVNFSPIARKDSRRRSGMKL
T3 sequence (P61075 whole entry): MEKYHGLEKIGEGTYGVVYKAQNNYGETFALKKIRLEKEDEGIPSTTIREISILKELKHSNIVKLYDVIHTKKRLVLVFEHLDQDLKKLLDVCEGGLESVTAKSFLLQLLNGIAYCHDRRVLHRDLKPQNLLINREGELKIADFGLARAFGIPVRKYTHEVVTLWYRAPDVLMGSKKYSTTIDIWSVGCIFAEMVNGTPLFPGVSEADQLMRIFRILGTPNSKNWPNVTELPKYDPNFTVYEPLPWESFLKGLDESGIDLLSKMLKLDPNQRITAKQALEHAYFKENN
T1 sequence (Q13163 whole entry): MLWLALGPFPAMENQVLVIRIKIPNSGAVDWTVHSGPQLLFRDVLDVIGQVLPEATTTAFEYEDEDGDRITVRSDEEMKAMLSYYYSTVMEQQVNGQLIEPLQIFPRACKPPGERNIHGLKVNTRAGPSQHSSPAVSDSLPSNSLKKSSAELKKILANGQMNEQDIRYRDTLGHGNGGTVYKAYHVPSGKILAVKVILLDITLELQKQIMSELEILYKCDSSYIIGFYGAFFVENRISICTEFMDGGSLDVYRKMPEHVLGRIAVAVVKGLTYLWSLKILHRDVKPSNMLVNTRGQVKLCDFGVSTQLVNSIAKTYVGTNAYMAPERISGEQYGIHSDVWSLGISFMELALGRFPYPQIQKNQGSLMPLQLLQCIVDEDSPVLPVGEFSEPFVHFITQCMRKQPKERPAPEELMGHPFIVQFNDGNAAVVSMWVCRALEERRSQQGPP
TGFBR1, sequence (P36897 whole entry): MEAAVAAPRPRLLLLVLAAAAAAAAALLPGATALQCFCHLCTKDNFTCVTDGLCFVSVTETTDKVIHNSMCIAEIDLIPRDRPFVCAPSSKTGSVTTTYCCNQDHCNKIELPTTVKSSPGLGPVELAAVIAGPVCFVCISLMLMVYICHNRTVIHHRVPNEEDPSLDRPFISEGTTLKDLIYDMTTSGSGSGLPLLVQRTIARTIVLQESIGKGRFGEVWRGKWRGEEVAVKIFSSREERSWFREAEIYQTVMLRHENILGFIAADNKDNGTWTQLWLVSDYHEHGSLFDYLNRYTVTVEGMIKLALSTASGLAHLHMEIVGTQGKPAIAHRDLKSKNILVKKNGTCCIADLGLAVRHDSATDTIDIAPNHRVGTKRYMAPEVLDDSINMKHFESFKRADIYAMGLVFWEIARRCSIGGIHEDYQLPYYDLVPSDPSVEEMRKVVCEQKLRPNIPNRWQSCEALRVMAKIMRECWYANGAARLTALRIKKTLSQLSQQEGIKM
CDK4-cyclinD3, sequence (P11802 whole entry): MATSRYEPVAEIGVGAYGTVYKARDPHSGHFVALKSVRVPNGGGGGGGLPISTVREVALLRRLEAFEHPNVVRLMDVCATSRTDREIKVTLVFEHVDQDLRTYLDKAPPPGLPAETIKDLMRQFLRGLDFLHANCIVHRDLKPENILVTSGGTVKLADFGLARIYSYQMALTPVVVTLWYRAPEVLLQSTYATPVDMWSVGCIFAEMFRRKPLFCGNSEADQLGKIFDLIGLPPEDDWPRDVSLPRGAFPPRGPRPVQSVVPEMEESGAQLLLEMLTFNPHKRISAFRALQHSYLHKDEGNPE
CDK4-cyclinD3, sequence (P30281 whole entry partner): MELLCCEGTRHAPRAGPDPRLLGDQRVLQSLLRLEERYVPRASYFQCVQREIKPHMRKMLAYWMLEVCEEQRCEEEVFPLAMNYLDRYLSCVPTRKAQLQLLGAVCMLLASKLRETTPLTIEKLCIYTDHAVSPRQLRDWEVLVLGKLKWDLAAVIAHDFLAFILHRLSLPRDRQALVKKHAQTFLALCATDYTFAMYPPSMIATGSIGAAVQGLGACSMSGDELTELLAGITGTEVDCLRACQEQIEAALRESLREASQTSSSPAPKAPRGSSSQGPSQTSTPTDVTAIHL
PKNB(M.tuberculosis), sequence (P9WI81 whole entry, looked up): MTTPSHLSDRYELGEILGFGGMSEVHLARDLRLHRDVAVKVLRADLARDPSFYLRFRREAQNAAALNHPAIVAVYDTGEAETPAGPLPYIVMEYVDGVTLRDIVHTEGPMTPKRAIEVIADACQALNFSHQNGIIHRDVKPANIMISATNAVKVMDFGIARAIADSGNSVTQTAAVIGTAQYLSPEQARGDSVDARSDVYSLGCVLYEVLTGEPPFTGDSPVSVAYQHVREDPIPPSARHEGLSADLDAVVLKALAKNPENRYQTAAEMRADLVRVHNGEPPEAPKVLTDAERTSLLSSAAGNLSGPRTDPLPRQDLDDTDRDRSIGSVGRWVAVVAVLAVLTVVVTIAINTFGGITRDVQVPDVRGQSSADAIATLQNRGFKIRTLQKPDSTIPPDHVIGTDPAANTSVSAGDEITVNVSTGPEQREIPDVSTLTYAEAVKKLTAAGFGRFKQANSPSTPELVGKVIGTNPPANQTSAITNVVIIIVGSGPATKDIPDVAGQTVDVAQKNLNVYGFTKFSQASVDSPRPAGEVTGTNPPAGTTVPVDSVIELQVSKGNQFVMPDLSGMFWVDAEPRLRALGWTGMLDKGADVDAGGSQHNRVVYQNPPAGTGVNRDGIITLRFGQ

Cc1cn(-c2cc(NC(=O)c3ccc4c(c3)CN(c3cncnc3)C[C@@H]4C)cc(C(F)(F)F)c2)cn1 [Compound 6j]
remaining activity at 1 µM (MEK5): 100% | remaining activity at 1 µM (TGFBR1): 96% | remaining activity at 1 µM (CDK4-cyclinD3): 100% | remaining activity at 1 µM (p38-delta): 70% | remaining binding at 1 µM (PKNB(M.tuberculosis)): 100% | remaining binding at 1 µM (PFPK5(P.falciparum)): 100% | clearance [1]: 17.6 L/h/kg | Kd (CDK11): 370 nM

— paper PMC5053573, “Structure-Based Design of Tetrahydroisoquinoline-7-carboxamides as Selective Discoidin Domain Receptor 1 (DDR1) Inhibitors” (Journal of Medicinal Chemistry, 2016)
